Our source for the melting point and Ki values is patent US6436941B1, “5,6-dihydro-napth[1,2-d]-imidazole, napth[1,2-d]imidazole, and chromane[3,4-d]imidazole derivatives” (Neurogen Corporation, priority 1995, dated 2002).

One data set deals with T1, D3 receptors (Chlorocebus aethiops, UniProt P52703).
T1 construct: expressed in transfected cells; host or cells: COS cells
The data set can be described thus: D3 receptor binding assay (3H-YM 09151-2 displacement). Details: species or system African Green monkey. The following applies: COS cells with recombinant D3 receptor; 0.5 nM 3H-YM 09151-2. The procedure: (§1) Assay for D2 and D3 receptor binding activity
(§2) Pellets of COS cells containing recombinantly produced D2 or D3 receptors from African Green monkey were used for the assays. The sample is homogenized in 100 volumes (w/vol) of 0.05 M Tris HCl buffer at 4° C. and pH 7.4. The sample is then centrifuged at 30,000×g and resuspended and rehomogenized. The sample is then centrifuged as described and the final tissue sample is frozen until use. The tissue is resuspended 1:20 (wt/vol) in 0.05 M Tris HCl buffer containing 100 mM NaCl.
(§3) Incubations are carried out at 48° C. and contain 0.4 ml of tissue sample, 0.5 nM ^3H-YM 09151-2 and the compound of interest in a total incubation of 1.0 ml. Nonspecific binding is defined as that binding found in the presence of 1 μM spiperone; without further additions, nonspecific binding is less than 20% of total binding.

Data set [1] has as its target T2, human dopamine D4 receptor subtype (Homo sapiens, UniProt P21917).
T2 construct: expressed in transfected cells
T2 sequence (P21917 1-419): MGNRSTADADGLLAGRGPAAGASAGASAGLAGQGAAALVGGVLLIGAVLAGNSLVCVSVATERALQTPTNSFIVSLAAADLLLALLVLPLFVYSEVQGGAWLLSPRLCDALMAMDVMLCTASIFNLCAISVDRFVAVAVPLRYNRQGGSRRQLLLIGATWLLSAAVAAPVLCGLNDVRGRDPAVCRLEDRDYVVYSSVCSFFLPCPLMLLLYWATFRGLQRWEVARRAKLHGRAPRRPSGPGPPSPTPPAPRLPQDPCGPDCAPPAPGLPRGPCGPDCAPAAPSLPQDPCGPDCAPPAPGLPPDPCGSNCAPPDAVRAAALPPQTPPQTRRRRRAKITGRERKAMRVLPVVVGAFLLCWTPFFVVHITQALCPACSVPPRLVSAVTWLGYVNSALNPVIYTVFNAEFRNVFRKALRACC
Description: D4 receptor binding assay ([3H]YM-09151-2 displacement). The procedure:
Assay for D4 receptor binding activity
Clonal cell lines expressing the human dopamine D4 receptor subtype were harvested in PBS and the cells centrifuged and the pellets stored at −80° C. until used in the binding assay. The pellets were resuspended and the cells lysed at 4° C. in 50 mM Tris pH 7.4 buffer containing 120 mM NaCl, 1 mM EDTA and 5 mM MgCl2. The homogenate is centrifuged at 48000×g for 10 minutes at 4° C. The resulting pellet is resuspended in fresh buffer and centrifuged again. After resuspension of the pellet in fresh buffer a […] aliquot is removed for protein determination. […] Incubations were carried out for 60 minutes at 25° C. in the presence of 0.1 nM [^3H] […] The incubation was terminated by rapid filtration through Whatman GF/C filters and rinsed with 2×4 ml washes of chilled 50 mM Tris (pH 7.4) and 120 mM NaCl. Non-specific binding was determined with 1 μM spiperone and radioactivity determined by counting in an LKB beta counter. Binding parameters were determined by non-linear least squares regression analysis, from which the inhibition constant Ki could be calculated for each test compound.

Another data set deals with T3, D2 receptors (Chlorocebus aethiops, UniProt P52702).
T3 construct: expressed in transfected cells; host or cells: COS cells
Description: D2 receptor binding assay (3H-YM 09151-2 displacement). Further details: species or system African Green monkey. The following applies: COS cells with recombinant D2 receptor; 0.5 nM 3H-YM 09151-2. As for the experimental part:
as §1, §2, §3

[2] abbreviates: clonal cell lines expressing human D4, 0.1 nM [3H]YM-09151-2, 60 minutes at 25° C., read-out: Ki.

Where a name gives a salt, the structure may show the parent alone. Read-outs that look alike come from different tables or passages of the source.

A word on the melting point: it is the temperature of the solid-liquid transition. As a reminder, the Ki is a dissociation constant, usually derived from enzyme kinetics or from competition with a known ligand.

T3 sequence (P52702 whole entry): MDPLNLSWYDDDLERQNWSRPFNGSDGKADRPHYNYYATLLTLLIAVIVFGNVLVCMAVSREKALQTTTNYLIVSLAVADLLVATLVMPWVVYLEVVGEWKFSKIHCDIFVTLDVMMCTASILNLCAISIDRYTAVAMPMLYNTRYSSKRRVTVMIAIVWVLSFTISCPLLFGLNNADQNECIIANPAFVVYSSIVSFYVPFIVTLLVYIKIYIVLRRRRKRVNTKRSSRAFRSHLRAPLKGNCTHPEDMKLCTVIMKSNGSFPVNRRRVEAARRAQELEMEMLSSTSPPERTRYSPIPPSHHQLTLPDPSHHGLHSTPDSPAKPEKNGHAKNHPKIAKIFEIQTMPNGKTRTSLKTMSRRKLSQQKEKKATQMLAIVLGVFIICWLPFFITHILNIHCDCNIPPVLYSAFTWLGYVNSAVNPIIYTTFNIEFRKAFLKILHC
T1 sequence (P52703 whole entry): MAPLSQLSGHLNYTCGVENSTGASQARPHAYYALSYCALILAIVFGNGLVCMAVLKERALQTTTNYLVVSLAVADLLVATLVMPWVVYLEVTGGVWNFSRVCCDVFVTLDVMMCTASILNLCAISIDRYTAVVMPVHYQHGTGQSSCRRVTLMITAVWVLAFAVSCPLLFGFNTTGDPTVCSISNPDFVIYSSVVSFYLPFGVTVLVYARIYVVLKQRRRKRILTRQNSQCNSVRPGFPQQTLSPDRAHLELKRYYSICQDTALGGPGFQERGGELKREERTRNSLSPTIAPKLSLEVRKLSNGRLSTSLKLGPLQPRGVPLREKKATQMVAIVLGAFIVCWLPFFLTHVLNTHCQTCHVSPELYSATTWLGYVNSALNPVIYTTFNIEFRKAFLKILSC

On to `c1cnc(N2CCN(Cc3nc4c([nH]3)-c3ccccc3CC4)CC2)nc1` (as salt: hydrochloride) [Compound 1, 1H-2-(1-(4-(2-pyrimidyl)piperazinyl))methyl-(5,6-dihydro)-naphth[1,2-d]imidazole dihydrochloride], for which the melting point lay within 212 to 214 °C.
`CN(Cc1ccccc1)Cc1nc2c([nH]1)-c1ccccc1CC2` (as salt: hydrochloride) [Compound 2, 1H-{2-(N-benzyl-N-methyl)aminomethyl}-(5,6-dihydro)-naphth[1,2-d]imidazole dihydrochloride] came in with a melting point of 225 to 227 °C.
Same read-out and setting: as for `CN(Cc1ccccc1)Cc1nc2c([nH]1)-c1ccccc1OC2` (as salt: hydrochloride) [Compound 3, 1H-{2-(N-benzyl-N-methyl)aminomethyl}chromano[3,4-d]imidazole dihydrochloride], the figure is 198 to 201 °C (dec.).
Take `c1cnc(N2CCN(Cc3nc4c([nH]3)-c3ccccc3CC4)CC2)nc1` [Compound 1, 1H-2-(1-(4-(2-pyrimidyl)piperazinyl))methyl-(5,6-dihydro)-naphth[1,2-d]imidazole dihydrochloride]: the Ki amounted to 7.8 µM at D3 receptors, 0.012 µM in data set [1] (setting [2]) and 4.2 µM at D2 receptors.
Turning to `CN(Cc1ccccc1)Cc1nc2c([nH]1)-c1ccccc1CC2` [Compound 2, 1H-{2-(N-benzyl-N-methyl)aminomethyl}-(5,6-dihydro)-naphth[1,2-d]imidazole dihydrochloride], the inhibition constant Ki stood at 0.21 µM at D3 receptors, 0.081 µM in data set [1] and 0.35 µM on D2 receptors.
For the compound `CN(Cc1ccccc1)Cc1nc2c([nH]1)-c1ccccc1OC2` [Compound 3, 1H-{2-(N-benzyl-N-methyl)aminomethyl}chromano[3,4-d]imidazole dihydrochloride], the inhibition constant Ki on D3 receptors is 0.44 µM; in data set [1] (setting [2]) it was 0.145 µM; at D2 receptors, 0.22 µM.
